Measurements taken from ChEMBL document CHEMBL1125986, “()-2-amino-2-thiazoline-4-ethanoic acid; a novel, specific GABAA receptor agonist” (Bioorg Med Chem Lett, 1991).

Tests used:
[1] = species: Rattus norvegicus; test: Tested for inhibition of CA1 population spike in rat hippocampal slice by electrophysiological experiment; assay type: functional; settings: Hippocampus
[2] = biological target: GABA-A receptor; anion channel; test: Inhibition of [3H]-GABA binding to GABA-A receptor in rat cerebral cortex homogenates; assay type: tissue-based
[3] = biological target: GABA-A receptor; anion channel (Rattus norvegicus) (UniProt O09028+P15431+P18506+P18508+P19969+P20236+P23574+P23576+P28471+P28473+P30191+P62813+P63079+P63138+Q91ZM7+Q9ES14); test: Enhanced [3H]benzodiazepine binding in rat cortical membranes at 100 uM; assay type: cell membranes
[4] = biological target: GABA-A receptor; anion channel; test: Effective concentration for stimulation of [3H]diazepam binding to rat cortical membranes; assay type: functional, cell membranes, Membrane

SMILES	EC50 [1] [µM]	IC50 [2] [µM]	Activity [3] [%]	EC50 [4] [µM]
Oc1noc2c1CCNC2 [GABOXADOL]	55	–	–	–
O=C(O)C1=CCNCC1 [ISOGUVACINE]	13	0.49	156	3.1
NC1=NC(CC(=O)O)CS1 (centres undefined)	28.3	0.5	142	3.4
